According to ChEMBL document CHEMBL4823282, “Novel Broad-Spectrum Antimicrobial Peptide Derived from Anoplin and Its Activity on Bacterial Pneumonia in Mice” (J Med Chem, 2021):
≈ marks a conversion by molar mass, not a printed value. Where a SMILES comes first, the peptide text is derived from it. Bridges are numbered along the chain shown (N, C = ends). [ ]: non-standard residue; d: D form. The star is where a group is joined. Ileψ(thiazoline)Cys = CC[C@H](C)[C@H](N)C1=N[C@H](C(=O)*)CS1; dOrn = NCCC[C@@H](N)C(=O)O

Experiments:
[1] = tested on: Escherichia coli; experiment: Antibacterial activity against Escherichia coli ATCC 25922 incubated for 18 hrs by CLSI based broth dilution method; type: functional
[2] = tested on: Acinetobacter baumannii; experiment: Antibacterial activity against Acinetobacter baumannii ATCC 19606 incubated for 18 hrs by CLSI based broth dilution method; type: functional; conditions: ATCC 19606 = CIP 70.34 = JCM 6841
[3] = tested on: Klebsiella pneumoniae; experiment: Antibacterial activity against Klebsiella pneumoniae ATCC 700603 incubated for 18 hrs by CLSI based broth dilution method; type: functional
[4] = tested on: Pseudomonas aeruginosa; experiment: Antibacterial activity against Pseudomonas aeruginosa ATCC 27853 incubated for 18 hrs by CLSI based broth dilution method; type: functional
[5] = tested on: Bacillus subtilis; experiment: Antibacterial activity against Bacillus subtilis ATCC 23857 incubated for 18 hrs by CLSI based broth dilution method; type: functional
[6] = tested on: Staphylococcus aureus; experiment: Antibacterial activity against Staphylococcus aureus ATCC 25923 incubated for 18 hrs by CLSI based broth dilution method; type: functional
[7] = tested on: Staphylococcus epidermidis; experiment: Antibacterial activity against Staphylococcus epidermidis ATCC 12228 incubated for 18 hrs by CLSI based broth dilution method; type: functional
[8] = tested on: Enterococcus faecalis; experiment: Antibacterial activity against Enterococcus faecalis ATCC 29212 incubated for 18 hrs by CLSI based broth dilution method; type: functional
[9] = tested on: Fungi; experiment: Antibacterial activity against fungi incubated for 18 hrs by CLSI based broth dilution method; type: functional
[10] = tested on: Bacteria; experiment: Antibacterial activity against Gram-positive bacteria incubated for 18 hrs by CLSI based broth dilution method; type: functional
[11] = Selectivity ratio of MHC10 for BALB/C mouse erythrocytes to MIC for gram-negative bacteria; type: toxicity
[12] = Cytotoxicity against human glomerular mesangial cells incubated for 12 hrs by MTT assay; type: cell-based; conditions: Glomerular mesangial cell
[13] = tested on: Erythrocyte; experiment: Hemolytic activity in BALB/C mouse erythrocytes incubated for 1 hr by absorbance method; type: ADME, cell-based
[14] = Selectivity ratio of MHC10 for BALB/C mouse erythrocytes to MIC for fungi; type: toxicity
[15] = Selectivity ratio of MHC10 for BALB/C mouse erythrocytes to MIC for gram positive bacteria; type: toxicity
[16] = tested on: Bacteria; experiment: Antibacterial activity against Gram-negative bacteria incubated for 18 hrs by CLSI based broth dilution method; type: functional
[17] = tested on: Bacteria; experiment: Antibacterial activity against bacteria incubated for 18 hrs by CLSI based broth dilution method; type: functional
[18] = Selectivity ratio of MHC10 for BALB/C mouse erythrocytes to MIC for bacteria; type: toxicity

| SMILES | MIC [1] [µM] | MIC [2] [µM] | MIC [3] [µM] | MIC [4] [µM] | MIC [5] [µM] | MIC [6] [µM] | MIC [7] [µM] | MIC [8] [µM] | MIC [9] [µM] | MIC [10] [µM] | selectivity ratio [11] | IC50 [12] [µM] | MHC10 [13] | selectivity ratio [14] | selectivity ratio at 18 h [15] | MIC [16] [µM] | MIC [17] [µM] | selectivity ratio [18] |
| --- | --- | --- | --- | --- | --- | --- | --- | --- | --- | --- | --- | --- | --- | --- | --- | --- | --- | --- |
| C[C@@H](O)[C@H]1C(=O)N2C(C(=O)O)=C(S[C@@H]3CN[C@H](C(=O)N(C)C)C3)[C@H](C)[C@H]12 [MEROPENEM] | < 1 | < 1 | < 1 | < 1 | < 1 | < 1 | < 1 | 4 (≈ 1.53 µg/mL) |  |  |  |  |  |  |  |  |  |  |
| CC(C)C[C@H](NC(=O)[C@H](Cc1ccccc1)NC(=O)CN)C(=O)N[C@@H](CCCCN)C(=O)N[C@@H](CCCNC(=N)N)C(=O)N[C@@H](Cc1ccccc1)C(=O)N[C@@H](CCCCN)C(=O)N[C@H](C(=O)N[C@@H](CC(C)C)C(=O)N[C@@H](Cc1ccccc1)C(N)=O)[C@@H](C)O (H-GFLKRFKTLF-NH2) | 64 (≈ 80.4 µg/mL) | 128 (≈ 161 µg/mL) | 128 (≈ 161 µg/mL) | 64 (≈ 80.4 µg/mL) | 64 (≈ 80.4 µg/mL) | 64 (≈ 80.4 µg/mL) | 8 (≈ 10 µg/mL) | 128 (≈ 161 µg/mL) | 49.4 (≈ 62 µg/mL) | 45.3 (≈ 56.9 µg/mL) | 7.14 | 209 | 384 µM | 7.78 | 8.48 | 53.8 (≈ 67.6 µg/mL) | 49.4 (≈ 62 µg/mL) | 7.78 |
| C[C@@H](O)[C@H](NC(=O)[C@H](CCCCN)NC(=O)[C@H](Cc1c[nH]c2ccccc12)NC(=O)[C@H](CCCNC(=N)N)NC(=O)[C@H](CCCCN)NC(=O)[C@H](Cc1c[nH]c2ccccc12)NC(=O)[C@H](Cc1c[nH]c2ccccc12)NC(=O)CN)C(=O)N[C@@H](Cc1c[nH]c2ccccc12)C(=O)N[C@@H](Cc1c[nH]c2ccccc12)C(N)=O (H-GWWKRWKTWW-NH2) | 16 (≈ 24.3 µg/mL) | 16 (≈ 24.3 µg/mL) | 16 (≈ 24.3 µg/mL) | 16 (≈ 24.3 µg/mL) | 4 (≈ 6.08 µg/mL) | 8 (≈ 12.2 µg/mL) | 4 (≈ 6.08 µg/mL) | 16 (≈ 24.3 µg/mL) | 9.51 (≈ 14.4 µg/mL) | 6.7 (≈ 10.2 µg/mL) | 3.02 | 49.5 | 40.79 µM | 4.29 | 6.09 | 13.5 (≈ 20.5 µg/mL) | 9.51 (≈ 14.4 µg/mL) | 4.29 |
| CN[C@@H]1[C@H](O[C@H]2[C@H](O[C@H]3[C@H](O)[C@@H](O)[C@H](N=C(N)N)[C@@H](O)[C@@H]3N=C(N)N)O[C@@H](C)[C@]2(O)C=O)O[C@@H](CO)[C@H](O)[C@H]1O [STREPTOMYCIN] | 4 (≈ 2.33 µg/mL) | 2 (≈ 1.16 µg/mL) | < 1 | 4 (≈ 2.33 µg/mL) | 2 (≈ 1.16 µg/mL) | < 1 | 32 (≈ 18.6 µg/mL) | 16 (≈ 9.31 µg/mL) |  |  |  |  |  |  |  |  |  |  |
| CC1(C)S[C@@H]2[C@H](NC(=O)Cc3ccccc3)C(=O)N2[C@H]1C(=O)O [PENICILLIN G] | 64 (≈ 21.4 µg/mL) | 128 (≈ 42.8 µg/mL) | ≥ 512 | 64 (≈ 21.4 µg/mL) | < 1 | < 1 | 16 (≈ 5.35 µg/mL) | 4 (≈ 1.34 µg/mL) |  |  |  |  |  |  |  |  |  |  |
| CC(C)C[C@H](NC(=O)[C@H](C)NC(=O)[C@@H](NC(=O)[C@H](CCCCN)NC(=O)[C@H](C)NC(=O)[C@H](CCCNC(=N)N)NC(=O)[C@H](CCCCN)NC(=O)[C@H](CC(C)C)NC(=O)[C@H](C)NC(=O)CN)[C@@H](C)O)C(N)=O (H-GALKRAKTAL-NH2) | ≥ 512 | ≥ 512 | ≥ 512 | ≥ 512 | ≥ 512 | ≥ 512 | ≥ 512 | ≥ 512 | ≥ 512 | ≥ 512 | 1 | ≥ 512 | >= 512 uM | 1 | 1 | ≥ 512 | ≥ 512 | 1 |
| CC(C)C[C@H](NC(=O)[C@H](CC(C)C)NC(=O)[C@@H](NC(=O)[C@H](CCCCN)NC(=O)[C@H](C)NC(=O)[C@H](CCCNC(=N)N)NC(=O)[C@H](CCCCN)NC(=O)[C@H](C)NC(=O)[C@H](CC(C)C)NC(=O)CN)[C@@H](C)O)C(N)=O (H-GLAKRAKTLL-NH2) | ≥ 512 | ≥ 512 | ≥ 512 | ≥ 512 | ≥ 512 | ≥ 512 | ≥ 512 | ≥ 512 | ≥ 512 | ≥ 512 | 1 | ≥ 512 | >= 512 uM | 1 | 1 | ≥ 512 | ≥ 512 | 1 |
| CC[C@H](C)[C@H](N)C1=N[C@H](C(=O)N[C@@H](CC(C)C)C(=O)N[C@H](CCC(=O)O)C(=O)N[C@H](C(=O)N[C@H]2CCCCNC(=O)[C@H](CC(N)=O)NC(=O)[C@@H](CC(=O)O)NC(=O)[C@H](Cc3cnc[nH]3)NC(=O)[C@@H](Cc3ccccc3)NC(=O)[C@H]([C@@H](C)CC)NC(=O)[C@@H](CCCN)NC2=O)[C@@H](C)CC)CS1 [BACITRACIN] ({Ileψ(thiazoline)Cys}-L[dE]IK[dOrn]I[dF]H[dD]N; lactam 4-C) | ≥ 512 | ≥ 128 | ≥ 512 | ≥ 512 | ≥ 512 | 16 (≈ 22.8 µg/mL) | 8 (≈ 11.4 µg/mL) | 32 (≈ 45.5 µg/mL) |  |  |  |  |  |  |  |  |  |  |
| C[C@H](NC(=O)[C@H](C)NC(=O)[C@@H](NC(=O)[C@H](CCCCN)NC(=O)[C@H](C)NC(=O)[C@H](CCCNC(=N)N)NC(=O)[C@H](CCCCN)NC(=O)[C@H](C)NC(=O)[C@H](C)NC(=O)CN)[C@@H](C)O)C(N)=O (H-GAAKRAKTAA-NH2) | ≥ 512 | ≥ 512 | ≥ 512 | ≥ 512 | ≥ 512 | ≥ 512 | ≥ 512 | ≥ 512 | ≥ 512 | ≥ 512 | 1 | ≥ 512 | >= 512 uM | 1 | 1 | ≥ 512 | ≥ 512 | 1 |
| CO/N=C(\C(=O)N[C@@H]1C(=O)N2C(C(=O)O)=C(COC(C)=O)CS[C@H]12)c1csc(N)n1 [CEFOTAXIME] | < 1 | 32 (≈ 14.6 µg/mL) | 8 (≈ 3.64 µg/mL) | < 1 | < 1 | 2 (≈ 0.911 µg/mL) | 2 (≈ 0.911 µg/mL) | ≥ 512 |  |  |  |  |  |  |  |  |  |  |
| C[C@@H](O)[C@H]1C(=O)N2C(C(=O)O)=C(SCCNC=N)C[C@H]12 [IMIPENEM ANHYDROUS] | < 1 | < 1 | < 1 | < 1 | < 1 | < 1 | < 1 | < 1 |  |  |  |  |  |  |  |  |  |  |
| NC[C@H]1O[C@H](O[C@H]2[C@H](O)[C@@H](O[C@H]3O[C@H](CO)[C@@H](O)[C@H](N)[C@H]3O)[C@H](N)C[C@@H]2N)[C@H](O)[C@@H](O)[C@@H]1O [KANAMYCIN] | 8 (≈ 3.88 µg/mL) | 4 (≈ 1.94 µg/mL) | 32 (≈ 15.5 µg/mL) | 8 (≈ 3.88 µg/mL) | < 1 | < 1 | < 1 | 8 (≈ 3.88 µg/mL) |  |  |  |  |  |  |  |  |  |  |
